The values that follow are results of earlier work, collected in patent US7217681B2, “Pesticidal composition and method for fungal control” (Syngenta Crop Protection, Inc., priority 2004, dated 2007).

The data set relates to fungi. The following applies: reported by Burg et al., Ivermectin and Abamectin, 1989.

Regarding abamectin, the “anti-bacterial or antifungal activity” value is recorded as “no anti-bacterial or antifungal activity”.
